The values below come from ChEMBL document CHEMBL5726955, “Substituted boronic acids and boronate esters as immunoproteasome inhibitors” (2019).

This test has as its target T1, Proteasome Macropain subunit MB1 (Homo sapiens, UniProt P28074).
T1 sequence (P28074 whole entry): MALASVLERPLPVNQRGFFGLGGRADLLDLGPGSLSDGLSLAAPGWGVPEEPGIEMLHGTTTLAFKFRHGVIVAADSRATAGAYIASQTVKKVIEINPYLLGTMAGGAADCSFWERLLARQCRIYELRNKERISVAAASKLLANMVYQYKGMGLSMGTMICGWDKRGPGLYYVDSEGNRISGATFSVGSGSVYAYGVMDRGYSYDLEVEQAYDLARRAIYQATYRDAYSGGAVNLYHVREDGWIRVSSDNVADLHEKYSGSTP
The test can be described thus: Determination of Beta5 Activity: Measurement of Beta5 inhibition is performed in 384 well format based on fluorescence intensity assay.Purified human constitutive proteasome (1.25 nM) and serial diluted compounds in DMSO (range of concentrations from 30 μM to […]) or controls are incubated for 20 minutes at 25° C. in assay buffer containing 50 mM Tris pH 7.4, 0.03% SDS, 1 mM EDTA and 1% DMSO. The reaction is initiated by the addition of the fluorogenic peptide substrate, Suc-LLVY-AMC (Bachem 1-1395), at a concentration of 40 μM. After 60 minutes of incubation at 37° C., fluorescence intensity is measured at λex=350 nm and λem=450 nm with a fluorescence reader (Perkin Elmer Envision reader or equivalent).

`Cc1ccc(OCCC(=O)N[C@@H](Cc2coc3ccccc23)B(O)O)cc1`: the IC50 – broadly, the concentration that inhibits the measured activity by half – was below 0.05 µM.

On to `CCO[C@@H](C(=O)N[C@@H](Cc1coc2ccccc12)B(O)O)c1ccccc1`, for which the IC50 is above 5 µM.
